Data on 18 molecules can be found in patent US8133998B2, “Bicyclic pyrimidine derivatives as calcium channel blockers” (Zalicus Pharmaceuticals, Ltd., priority 2007, dated 2012).

Experiment [1] has as its target T1, human α1H T-type channels (Homo sapiens, UniProt O95180).
T1 construct: expressed in transfected cells; host or cells: HEK 293
As to the kind of experiment: T-type calcium channel block, whole cell patch clamp in HEK cells. The note with it: HEK cells stably expressing human α1H; measured at 1 μM drug; mainly non-inactivated protocol. The format is cell-based. As to the method:
(§1) T-type calcium channel blocking activity was assayed in human embryonic kidney cells, HEK 293, stably transfected with the T-type calcium channel subunits. Briefly, cells were cultured in Dulbecco's modified eagle medium (DMEM) supplemented with 10% fetal bovine serum, 200 U/ml penicillin and 0.2 mg/ml streptomycin at 37° C. with 5% CO2. At 85% confluency cells were split with 0.25% trypsin/1 mM EDTA and plated at 10% confluency on glass coverslips. At 12 hours the medium was replaced and the cells stably transfected using a standard calcium phosphate protocol and the appropriate calcium channel cDNA's. Fresh DMEM was supplied and the cells transferred to 28° C./5% CO2. Cells were incubated for 1 to 2 days prior to whole cell recording.
(§2) Standard patch-clamp techniques were employed to identify blockers of T-type currents. Briefly, previously described HEK cell lines stably expressing human α1G, α1H and α1I T-type channels were used for all the recordings (passage #: 4-20, 37° C., 5% CO2). Whole cell patch clamp experiments were performed using an Axopatch 200B amplifier (Axon Instruments, Burlingame, Calif.) linked to a personal computer equipped with pCLAMP software. Data were analyzed using Clampfit (Axon Instruments) and SigmaPlot 4.0 (Jandel Scientific). To obtain T-type currents, plastic dishes containing semi-confluent cells were positioned on the stage of a ZEISS AXIOVERT S100 microscope after replacing the culture medium with external solution (see below). Whole-cell patches were obtained using pipettes (borosilicate glass with filament, O.D.: 1.5 mm, I.D.: 0.86 mm, 10 cm length), fabricated on a SUTTER P-97 puller with resistance values of ˜5 MΩ (see below for internal solution).
(§3) In the non-inactivating protocol, the holding potential is set at −110 mV and with a pre-pulse at −100 mV for 1 second prior to the test pulse at −40 mV for 50 ms. In the inactivation protocol, the pre-pulse is at approximately −85 mV for 1 second, which inactivates about 15% of the T-type channels.
(§4) Test compounds were dissolved in external solution, 0.1-0.01% DMSO. After ˜10 min rest, they were applied by gravity close to the cell using a WPI microfil tubing. The “non-inactivated” pre-pulse was used to examine the resting block of a compound. The “inactivated” protocol was employed to study voltage-dependent block. However, the initial data shown below were mainly obtained using the non-inactivated protocol only. Kd values are shown for various compounds of the invention in Table 4 measured at 1 μM for the drug of interest except for compound 18 which was measured at 200 nM.

In experiment [2] the target is T2, human α1I T-type channels (Homo sapiens, UniProt Q9P0X4).
T2 construct: expressed in transfected cells; host or cells: HEK 293
The experiment is described as above. The experiment is classed as cell-based. The note with it: HEK cells stably expressing human α1I; measured at 1 μM drug; mainly non-inactivated protocol. As for the experimental part: as §1, §2, §3, §4

The target of experiment [3] is T3, human α1G T-type channels (Homo sapiens, UniProt O43497).
T3 construct: expressed in transfected cells; host or cells: HEK 293
The description is as above. The format is cell-based. The note with it: HEK cells stably expressing human α1G; measured at 1 μM drug; mainly non-inactivated protocol. As for the experimental part:
as §1, §2, §3, §4

Experiment [4] concerns T-type over L-type channels. The note with it: cited from earlier work.
Experiment [5] concerns spinal nerve ligation model of neuropathic pain. The note with it: rats; cited from earlier work.

T2 sequence (Q9P0X4 whole entry): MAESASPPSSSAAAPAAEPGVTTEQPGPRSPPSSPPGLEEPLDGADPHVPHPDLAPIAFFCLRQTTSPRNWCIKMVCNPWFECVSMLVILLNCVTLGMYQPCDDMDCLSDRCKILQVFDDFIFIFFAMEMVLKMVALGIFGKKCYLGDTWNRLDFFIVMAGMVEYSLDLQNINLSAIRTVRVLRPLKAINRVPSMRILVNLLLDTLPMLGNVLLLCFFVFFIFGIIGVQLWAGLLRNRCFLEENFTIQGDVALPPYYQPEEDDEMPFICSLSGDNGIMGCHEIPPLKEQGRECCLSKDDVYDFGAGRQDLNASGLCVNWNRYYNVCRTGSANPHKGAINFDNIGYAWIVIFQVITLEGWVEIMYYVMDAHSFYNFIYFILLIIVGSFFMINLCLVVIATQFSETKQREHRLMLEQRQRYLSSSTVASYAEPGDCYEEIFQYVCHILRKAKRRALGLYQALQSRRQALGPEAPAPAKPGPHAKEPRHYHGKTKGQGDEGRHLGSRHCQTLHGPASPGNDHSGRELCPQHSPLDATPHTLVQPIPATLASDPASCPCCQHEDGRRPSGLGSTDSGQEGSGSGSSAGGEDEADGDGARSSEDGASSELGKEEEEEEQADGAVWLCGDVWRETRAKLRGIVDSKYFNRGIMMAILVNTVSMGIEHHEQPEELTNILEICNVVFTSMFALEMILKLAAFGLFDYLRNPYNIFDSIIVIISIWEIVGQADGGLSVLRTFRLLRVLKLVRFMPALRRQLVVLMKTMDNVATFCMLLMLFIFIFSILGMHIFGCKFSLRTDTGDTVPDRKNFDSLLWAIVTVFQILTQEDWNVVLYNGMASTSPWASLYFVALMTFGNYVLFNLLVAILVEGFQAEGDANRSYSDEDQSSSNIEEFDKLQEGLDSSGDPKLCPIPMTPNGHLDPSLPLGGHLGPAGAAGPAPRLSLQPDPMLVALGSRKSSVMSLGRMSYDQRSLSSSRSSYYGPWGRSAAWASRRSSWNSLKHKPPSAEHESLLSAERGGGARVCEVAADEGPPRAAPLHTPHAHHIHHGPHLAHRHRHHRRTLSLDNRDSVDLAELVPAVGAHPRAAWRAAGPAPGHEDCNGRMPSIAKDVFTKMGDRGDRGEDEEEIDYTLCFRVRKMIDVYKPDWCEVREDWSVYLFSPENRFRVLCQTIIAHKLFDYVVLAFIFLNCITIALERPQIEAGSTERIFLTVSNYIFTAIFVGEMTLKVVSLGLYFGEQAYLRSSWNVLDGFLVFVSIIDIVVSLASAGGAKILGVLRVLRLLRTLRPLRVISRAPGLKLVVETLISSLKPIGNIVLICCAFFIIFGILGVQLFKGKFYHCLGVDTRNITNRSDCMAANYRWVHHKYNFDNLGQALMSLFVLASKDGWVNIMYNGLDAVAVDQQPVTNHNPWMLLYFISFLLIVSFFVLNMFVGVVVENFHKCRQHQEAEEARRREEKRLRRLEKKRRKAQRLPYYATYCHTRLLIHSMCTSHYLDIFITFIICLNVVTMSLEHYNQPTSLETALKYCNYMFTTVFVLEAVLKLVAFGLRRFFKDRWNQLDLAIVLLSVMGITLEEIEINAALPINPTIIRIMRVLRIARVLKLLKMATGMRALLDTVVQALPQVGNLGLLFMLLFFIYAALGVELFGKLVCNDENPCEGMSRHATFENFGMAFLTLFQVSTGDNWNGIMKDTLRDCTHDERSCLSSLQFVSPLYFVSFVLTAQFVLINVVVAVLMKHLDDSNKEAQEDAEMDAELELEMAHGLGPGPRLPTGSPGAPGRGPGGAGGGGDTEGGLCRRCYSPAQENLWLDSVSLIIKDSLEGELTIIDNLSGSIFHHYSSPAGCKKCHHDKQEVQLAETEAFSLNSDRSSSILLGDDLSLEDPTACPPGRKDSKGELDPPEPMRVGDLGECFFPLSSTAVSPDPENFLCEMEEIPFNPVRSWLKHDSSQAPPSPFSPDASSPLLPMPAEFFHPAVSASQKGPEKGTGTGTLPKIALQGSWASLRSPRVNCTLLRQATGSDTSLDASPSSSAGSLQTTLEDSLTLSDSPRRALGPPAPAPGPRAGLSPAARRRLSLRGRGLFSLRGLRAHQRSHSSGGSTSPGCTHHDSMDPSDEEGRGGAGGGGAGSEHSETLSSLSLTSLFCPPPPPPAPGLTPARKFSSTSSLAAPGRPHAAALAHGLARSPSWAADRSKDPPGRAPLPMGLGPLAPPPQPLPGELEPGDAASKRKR
T3 sequence (O43497 whole entry): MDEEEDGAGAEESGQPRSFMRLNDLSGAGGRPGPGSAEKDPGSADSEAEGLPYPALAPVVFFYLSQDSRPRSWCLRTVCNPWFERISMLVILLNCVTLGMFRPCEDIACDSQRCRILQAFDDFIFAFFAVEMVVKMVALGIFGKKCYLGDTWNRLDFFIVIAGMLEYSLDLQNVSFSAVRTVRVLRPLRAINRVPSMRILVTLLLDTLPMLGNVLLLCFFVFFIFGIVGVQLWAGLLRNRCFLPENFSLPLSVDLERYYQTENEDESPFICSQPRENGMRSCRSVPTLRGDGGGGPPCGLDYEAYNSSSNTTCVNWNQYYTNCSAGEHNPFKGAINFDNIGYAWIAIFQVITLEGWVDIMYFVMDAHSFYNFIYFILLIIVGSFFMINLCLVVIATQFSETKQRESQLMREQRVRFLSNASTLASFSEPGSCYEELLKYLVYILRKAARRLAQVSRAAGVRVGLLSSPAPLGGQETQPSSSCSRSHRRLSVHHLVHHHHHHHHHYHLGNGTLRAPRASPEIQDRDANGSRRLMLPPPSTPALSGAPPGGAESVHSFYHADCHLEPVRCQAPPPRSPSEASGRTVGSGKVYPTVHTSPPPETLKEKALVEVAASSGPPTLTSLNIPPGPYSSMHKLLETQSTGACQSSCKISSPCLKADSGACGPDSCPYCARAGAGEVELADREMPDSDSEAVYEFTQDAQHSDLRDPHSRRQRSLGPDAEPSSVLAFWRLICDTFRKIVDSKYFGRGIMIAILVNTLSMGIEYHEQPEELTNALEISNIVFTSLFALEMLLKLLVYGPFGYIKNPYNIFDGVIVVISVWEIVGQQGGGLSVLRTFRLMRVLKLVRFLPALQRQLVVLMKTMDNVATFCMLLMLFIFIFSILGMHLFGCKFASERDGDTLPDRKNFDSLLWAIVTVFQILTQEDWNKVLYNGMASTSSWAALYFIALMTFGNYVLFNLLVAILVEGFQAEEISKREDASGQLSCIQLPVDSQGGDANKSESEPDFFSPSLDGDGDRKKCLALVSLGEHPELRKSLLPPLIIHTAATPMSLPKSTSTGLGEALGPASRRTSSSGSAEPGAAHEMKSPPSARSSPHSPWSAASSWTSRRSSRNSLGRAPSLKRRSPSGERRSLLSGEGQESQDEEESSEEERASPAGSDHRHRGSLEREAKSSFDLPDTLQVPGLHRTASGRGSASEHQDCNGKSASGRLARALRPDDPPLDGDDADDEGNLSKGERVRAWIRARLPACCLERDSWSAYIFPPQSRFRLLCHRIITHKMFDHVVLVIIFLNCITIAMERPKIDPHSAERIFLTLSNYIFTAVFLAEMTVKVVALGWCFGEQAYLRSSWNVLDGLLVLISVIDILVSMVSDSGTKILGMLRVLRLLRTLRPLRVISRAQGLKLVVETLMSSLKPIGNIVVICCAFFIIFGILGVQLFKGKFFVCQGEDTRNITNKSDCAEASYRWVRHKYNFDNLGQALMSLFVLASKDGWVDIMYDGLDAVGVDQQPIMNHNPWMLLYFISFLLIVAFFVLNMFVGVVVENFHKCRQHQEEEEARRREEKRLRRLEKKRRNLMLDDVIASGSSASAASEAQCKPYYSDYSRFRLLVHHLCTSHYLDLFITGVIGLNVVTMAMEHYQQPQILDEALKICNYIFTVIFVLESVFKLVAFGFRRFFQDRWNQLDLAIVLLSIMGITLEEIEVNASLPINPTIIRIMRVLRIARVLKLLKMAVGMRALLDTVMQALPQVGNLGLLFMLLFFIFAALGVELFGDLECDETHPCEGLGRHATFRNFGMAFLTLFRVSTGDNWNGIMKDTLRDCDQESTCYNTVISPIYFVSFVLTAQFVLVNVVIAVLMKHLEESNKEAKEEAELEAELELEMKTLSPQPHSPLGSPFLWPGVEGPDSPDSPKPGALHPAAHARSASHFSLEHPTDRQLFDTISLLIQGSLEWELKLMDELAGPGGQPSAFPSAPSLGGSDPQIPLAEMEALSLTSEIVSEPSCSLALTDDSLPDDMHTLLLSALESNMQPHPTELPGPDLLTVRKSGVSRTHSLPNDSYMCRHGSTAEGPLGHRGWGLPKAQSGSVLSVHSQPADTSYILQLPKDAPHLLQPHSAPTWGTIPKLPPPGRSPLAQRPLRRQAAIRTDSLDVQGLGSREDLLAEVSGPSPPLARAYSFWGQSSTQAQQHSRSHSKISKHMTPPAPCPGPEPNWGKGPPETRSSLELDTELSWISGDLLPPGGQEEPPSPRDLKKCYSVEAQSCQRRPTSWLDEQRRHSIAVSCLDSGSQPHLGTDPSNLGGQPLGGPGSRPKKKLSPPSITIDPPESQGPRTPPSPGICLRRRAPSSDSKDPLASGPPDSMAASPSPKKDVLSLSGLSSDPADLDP

As for `Cc1c(C(=O)N2CCN(c3ccccc3F)CC2)sc2ncn(CC(=O)NC3CCCCC3)c(=O)c12` [Compound 23, N-cyclohexyl-2-(6-(4-(2-fluorophenyl)piperazine-1-carbonyl)-5-methyl-4-oxothieno[2,3-d]pyrimidin-3(4H)-yl)acetamide], the Kd in experiment [1] is 280 nM; in experiment [2] it was 3270 nM; in experiment [3], 1260 nM.
In the same order, the values of `Cc1c(C(=O)N2CCN(c3cccc(Cl)c3)CC2)sc2ncn(CC(=O)NC3CCCCC3)c(=O)c12` [Compound 24, 2-(6-(4-(3-chlorophenyl)piperazine-1-carbonyl)-5-methyl-4-oxothieno[2,3-d]pyrimidin-3(4H)-yl)-N-cyclohexylacetamide] are 90 nM, 1520 nM and 300 nM.
The matching figures for `Cc1c(C(=O)N2CCN(c3ccccc3)CC2)sc2ncn(C(C)C(=O)NC3CCCCC3)c(=O)c12` (stereo not drawn) [Compound 33, N-cyclohexyl-2-(5-methyl-4-oxo-6-(4-phenylpiperazine-1-carbonyl)thieno[2,3-d]pyrimidin-3(4H)-yl)propanamide]: 350 nM, 5130 nM and 16500 nM.
Consider `Cc1c(C(=O)N2CCN(c3cccc(Cl)c3)CC2)sc2ncn(CC(=O)NC3CCCC3)c(=O)c12` [Compound 37, 2-(6-(4-(3-chlorophenyl)piperazine-1-carbonyl)-5-methyl-4-oxothieno[2,3-d]pyrimidin-3(4H)-yl)-N-cyclopentylacetamide], for which the values for the Kd in experiment [1], in experiment [2] and in experiment [3] were 170 nM, 3290 nM and 300 nM, respectively.
Regarding `Cc1c(C(=O)N2CCN(c3ccc(Cl)c(C(F)(F)F)c3)CC2)sc2ncn(CC(=O)NC3CCCC3)c(=O)c12` [Compound 38, 2-(6-(4-(4-chloro-3-(trifluoromethyl)phenyl)piperazine-1-carbonyl)-5-methyl-4-oxothieno[2,3-d]pyrimidin-3(4H)-yl)-N-cyclopentylacetamide], the Kd in experiment [1] amounted to 100 nM; in experiment [2], 2140 nM; in experiment [3], 100 nM.
With `Cc1c(C(=O)N2CCN(c3ccc(Cl)cc3)CC2)sc2ncn(CC(=O)NC3CCCC3)c(=O)c12` [Compound 42, 2-(6-(4-(4-chlorophenyl)piperazine-1-carbonyl)-5-methyl-4-oxothieno[2,3-d]pyrimidin-3(4H)-yl)-N-cyclopentylacetamide], the results for the Kd in experiment [1], in experiment [2] and in experiment [3] were 280 nM, 3840 nM and 570 nM, respectively.
In the same order, the values of `Cc1c(C(=O)N2CCN(c3ccccc3)CC2)sc2ncn(CC(=O)Nc3ccccc3)c(=O)c12` [Compound 52, 2-(5-methyl-4-oxo-6-(4-phenylpiperazine-1-carbonyl)thieno[2,3-d]pyrimidin-3(4H)-yl)-N-phenylacetamide] are 350 nM, 8790 nM and 1010 nM.
The matching figures for `Cc1c(C(=O)N2CCN(c3cc(C(F)(F)F)cc(C(F)(F)F)c3)CC2)sc2ncn(CC(=O)Nc3ccccc3)c(=O)c12` [Compound 53, 2-(6-(4-(3,5-bis(trifluoromethyl)phenyl)piperazine-1-carbonyl)-5-methyl-4-oxothieno[2,3-d]pyrimidin-3(4H)-yl)-N-phenylacetamide]: 1040 nM, 580 nM and 190 nM.
Regarding `Cc1c(C(=O)N2CCN(c3ccccc3)CC2)sc2ncn(CC(=O)Nc3cc(F)cc(F)c3)c(=O)c12` [Compound 55, 2-(6-(4-phenylpiperazine-1-carbonyl)-5-methyl-4-oxothieno[2,3-d]pyrimidin-3(4H)-yl)-N-(3,5-difluorophenyl)acetamide], the figures for the equilibrium dissociation constant (Kd) in experiment [1], in experiment [2] and in experiment [3] were 380 nM, above 950 nM and 240 nM, respectively.
The matching figures for `Cc1c(C(=O)N2CCN(c3ccccc3F)CC2)sc2ncn(CC(=O)Nc3cccc(C(F)(F)F)c3)c(=O)c12` [Compound 62, 2-(6-(4-(2-fluorophenyl)piperazine-1-carbonyl)-5-methyl-4-oxothieno[2,3-d]pyrimidin-3(4H)-yl)-N-(3-(trifluoromethyl)phenyl)acetamide]: 800 nM, 340 nM and 290 nM.
On to `Cc1c(C(=O)N2CCN(c3ccccc3F)CC2)sc2ncn(CC(=O)Nc3cc(C(F)(F)F)cc(C(F)(F)F)c3)c(=O)c12` [Compound 64, N-(3,5-bis(trifluoromethyl)phenyl)-2-(6-(4-(2-fluorophenyl)piperazine-1-carbonyl)-5-methyl-4-oxothieno[2,3-d]pyrimidin-3(4H)-yl)acetamide], for which the results for the Kd in experiment [1], in experiment [2] and in experiment [3] were 700 nM, 80 nM and 200 nM, respectively.
In the case of `CNC(=O)c1sc2ncn(CC(=O)Nc3cc(C(F)(F)F)cc(C(F)(F)F)c3)c(=O)c2c1C` [Compound 66, 3-(2-(3,5-bis(trifluoromethyl)phenylamino)-2-oxoethyl)-N,5-dimethyl-4-oxo-3,4-dihydrothieno[2,3-d]pyrimidine-6-carboxamide], the Kd in experiment [1] came to 7590 nM; in experiment [2], 1040 nM; in experiment [3], 350 nM.
The matching figures for `Cc1c(C(=O)N2CCCCC2)sc2ncn(CC(=O)Nc3cc(C(F)(F)F)cc(C(F)(F)F)c3)c(=O)c12` [Compound 69, N-(3,5-bis(trifluoromethyl)phenyl)-2-(5-methyl-4-oxo-6-(piperidine-1-carbonyl)thieno[2,3-d]pyrimidin-3(4H)-yl)acetamide]: 2730 nM, 710 nM and 230 nM.
The matching figures for `Cc1c(C(=O)N2CCN(c3cccc(Cl)c3)CC2)sc2ncn(CC(=O)N3CCCC3)c(=O)c12` [Compound 73, 6-(4-(3-chlorophenyl)piperazine-1-carbonyl)-5-methyl-3-(2-oxo-2-(pyrrolidin-1-yl)ethyl)thieno[2,3-d]pyrimidin-4(3H)-one]: 220 nM, 8800 nM and 1460 nM.
`Cc1c(C(=O)N2CCN(c3ccc(Cl)c(Cl)c3)CC2)sc2ncn(CC(=O)N3CCCC3)c(=O)c12` [Compound 135, 6-(4-(3,4-dichlorophenyl)piperazine-1-carbonyl)-5-methyl-3-(2-oxo-2-(pyrrolidin-1-yl)ethyl)thieno[2,3-d]pyri-midin-4(3H)-one]: the results for the Kd in experiment [1], in experiment [2] and in experiment [3] were 330 nM, 1380 nM and 9900 nM, respectively.
The matching figures for `Cc1c(C(=O)N2CCN(c3cccc(Cl)c3)CC2)sc2ncn(CC(=O)Nc3ccc(F)cc3F)c(=O)c12` [Compound 140, 2-(6-(4-(3-chlorophenyl)piperazine-1-carbonyl)-5-methyl-4-oxothieno[2,3-d]pyrimidin-3(4H)-yl)-N-(2,4 difluorophenyl)acetamide]: 180 nM, 4990 nM and 360 nM.
Turning to `COCC(=O)O[C@]1(CCN(C)CCCc2nc3ccccc3[nH]2)CCc2cc(F)ccc2[C@@H]1C(C)C` [Mibefradil], the “selective for T-type over L-type channels” value in experiment [4] is on record as 10-30 fold. In addition, in experiment [5], the “anti-hyperalgesic activity in the spinal nerve ligation model of neuropathic pain” value is on record as “anti-hyperalgesic activity”.
In the case of `CCC1(C)CC(=O)NC1=O` (stereo not drawn) [ethosuximide], in experiment [5], the “anti-hyperalgesic activity in the spinal nerve ligation model of neuropathic pain” value is listed as “anti-hyperalgesic activity”.
